Results: patent US20240384268A1, “Oligonucleotides” (Hudson Institute of Medical Research, priority 2021, published 2024)
In the oligonucleotide strings, read from the 5' end, every base follows the letter of its sugar. An asterisk marks phosphorothioate; unmarked linkages are phosphodiester. Other units and linkages are bracketed, terminal groups are in braces. A string of capitals states the bases alone. d = 2'-deoxy (DNA); m = 2'-O-methyl

Molecular target: T1, TLR8 (Homo sapiens, UniProt Q9NR97)
T1 sequence (Q9NR97 27-1041): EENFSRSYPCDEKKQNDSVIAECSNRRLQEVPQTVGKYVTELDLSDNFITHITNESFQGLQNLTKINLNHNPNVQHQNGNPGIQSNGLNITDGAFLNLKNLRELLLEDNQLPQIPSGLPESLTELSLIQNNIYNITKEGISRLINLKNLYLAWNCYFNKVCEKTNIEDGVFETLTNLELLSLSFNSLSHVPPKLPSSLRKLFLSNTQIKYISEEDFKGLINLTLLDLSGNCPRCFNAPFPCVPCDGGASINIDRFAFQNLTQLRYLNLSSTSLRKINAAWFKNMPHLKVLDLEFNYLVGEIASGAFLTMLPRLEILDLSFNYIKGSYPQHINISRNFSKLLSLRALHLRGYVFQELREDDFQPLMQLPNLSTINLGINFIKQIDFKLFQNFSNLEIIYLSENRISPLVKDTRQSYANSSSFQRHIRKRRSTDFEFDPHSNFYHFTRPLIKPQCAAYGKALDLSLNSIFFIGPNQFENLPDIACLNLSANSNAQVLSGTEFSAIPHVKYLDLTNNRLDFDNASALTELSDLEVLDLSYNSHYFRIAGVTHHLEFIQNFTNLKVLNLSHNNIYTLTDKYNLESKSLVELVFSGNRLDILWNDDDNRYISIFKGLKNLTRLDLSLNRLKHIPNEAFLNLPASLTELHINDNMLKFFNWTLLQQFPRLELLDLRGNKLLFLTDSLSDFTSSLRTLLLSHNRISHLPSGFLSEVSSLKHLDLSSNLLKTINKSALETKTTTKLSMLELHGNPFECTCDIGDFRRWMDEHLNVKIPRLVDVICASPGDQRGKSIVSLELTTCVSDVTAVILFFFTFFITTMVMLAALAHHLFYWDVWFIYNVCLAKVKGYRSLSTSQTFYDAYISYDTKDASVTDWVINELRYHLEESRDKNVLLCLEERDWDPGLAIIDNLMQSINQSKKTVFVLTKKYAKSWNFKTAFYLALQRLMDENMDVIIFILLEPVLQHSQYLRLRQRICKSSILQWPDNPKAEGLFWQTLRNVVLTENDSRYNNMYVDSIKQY
Experiment: HEK-TLR8 NF-κB-luciferase reporter, R848 or Motolimod stimulation (potentiation or inhibition)
Format: cell-based
Set-up: expressed in transfected cells; host or cells: 293XLhTLR8 (HEK293)
Details: for TLR8-500 nM: averaged NF-κB-Luciferase relative to R848: HEK-TLR8, 500 nM ASO, fold increase relative to R848 without ASO (Alharbi et al., 2020); for TLR8 100 nM: MOE-modified ASO at 100 nM; for TLR8 100 nM / TLR8 500 nM: averaged NF-κB-Luciferase relative to R848 condition (fold increase); for TLR8 500 nM: MOE-modified ASO at 500 nM

Substance	TLR8-500 nM: averaged NF-κB-Luciferase relative to R848 [fold]	TLR8 100 nM	TLR8 500 nM
mG*mU*mC*mC*mC*A*T*C*C*C*T*T*C*T*G*mC*mU*mG*mC*mC (GUCCCATCCCTTCTGCUGCC; antisense; sugars from the 5' end m5 d10 m5, all phosphorothioate, methylation of C not given here) [[LINC-PINT]102]	5.07	–	–
ATGCCATCCACTTGATAGGC (antisense; 2'-MOE modified, pattern not given here) [EGFR-2874 MOE]	–	2.028	2.025
mC*mC*mU*mA*mG*A*A*A*G*A*A*G*C*A*A*mA*mG*mA*mU*mU (mC*mC*mU*mA*mG*dA*dA*dA*dG*dA*dA*dG*dC*dA*dA*mA*mG*mA*mU*mU) [[CDKN2B-AS1]1522]	4.94	–	–
mA*mA*mA*mA*mU*A*A*G*G*G*G*A*A*T*A*mG*mG*mG*mG*mA (mA*mA*mA*mA*mU*dA*dA*dG*dG*dG*dG*dA*dA*dT*dA*mG*mG*mG*mG*mA; antisense) [[CDKN2B-AS1]79]	0.71	–	–
mG*mC*mG*mU*mA*G*T*T*T*C*T*C*T*T*C*mC*mU*mC*mC*mC (GCGUAGTTTCTCTTCCUCCC; sugars from the 5' end m5 d10 m5, all phosphorothioate, methylation of C not given here) [[LINC-PINT]935 KL]	4.12	–	–
CGGAGGTCTTGGCTTCGTGG (antisense; 2'-MOE modified, pattern not given here) [MB21D1-525 MOE]	–	2.197	3.257
mU*mG*mA*mU*mG*A*T*G*C*T*T*G*C*A*G*mG*mA*mG*mG*mC (mU*mG*mA*mU*mG*dA*dT*dG*dC*dT*dT*dG*dC*dA*dG*mG*mA*mG*mG*mC) [[LINC-PINT|283.1]	1.57	–	–
mA*mU*mG*mA*mC*A*T*T*T*C*G*T*G*G*C*mU*mC*mC*mU*mA (mA*mU*mG*mA*mC*dA*dT*dT*dT*dC*dG*dT*dG*dG*dC*mU*mC*mC*mU*mA) [[LINC-PINT]524.1]	1.20	–	–
GTCCAAGATCAGCAGTCTCA (antisense; 2'-MOE modified, pattern not given here) [CTNN2B-2341 MOE]	–	3.021	3.364
mC*mC*mC*mU*mU*C*T*C*T*C*T*G*G*T*C*mC*mC*mA*mU*mC (mC*mC*mC*mU*mU*dC*dT*dC*dT*dC*dT*dG*dG*dT*dC*mC*mC*mA*mU*mC; antisense) [[LINC-PINT]114]	8.12	–	–
GGTTTTGGCTGGGATCAAGT (antisense; 2'-MOE modified, pattern not given here) [CAMSAP1-4697 MOE]	–	5.496	6.332
mU*mU*mU*mG*mA*A*A*T*T*C*A*G*A*A*G*mA*mU*mU*mU*mG (mU*mU*mU*mG*mA*dA*dA*dT*dT*dC*dA*dG*dA*dA*dG*mA*mU*mU*mU*mG) [[LINC PINT|2690]	4.93	–	–
CGGCATCCACCACGTCGTCC (antisense; 2'-MOE modified, pattern not given here) [EGFR-3267 MOE]	–	1.249	0.903
mG*mG*mU*mG*mG*C*C*A*C*A*G*G*C*A*A*mC*mG*mU*mC*mA (GGUGGCCACAGGCAACGUCA; antisense; sugars from the 5' end m5 d10 m5, all phosphorothioate, methylation of C not given here) [[CDKN2B-AS1]2196]	0.98	–	–
mC*mC*mU*mU*mC*T*C*T*C*T*G*GT*C*C*mC*mA*mU*mC*mC (CCUUCTCTCTGGTCCCAUCC; antisense; chemistry not fully specified) [[LINC-PINT]113]	3.51	–	–
mC*mU*mU*mC*mU*C*T*C*T*G*G*T*C*C*C*mA*mU*mC*mC*mC (mC*mU*mU*mC*mU*dC*dT*dC*dT*dG*dG*dT*dC*dC*dC*mA*mU*mC*mC*mC) [[LINC-PINT]112]	9.21	–	–
